Reference: publication PMC11320581 (ACS Infectious Diseases, 2024)

Tests used:
B. anthracis gyrase = assay type: biochemical, Bacillus anthracis
E. coli gyrase = E. coli gyrase (Escherichia coli, UniProt P0AES4+P0AES6); assay type: biochemical
M. tuberculosis gyrase = conditions: cited from earlier work

Sequence of E. coli gyrase (P0AES4 whole entry, one chain of several): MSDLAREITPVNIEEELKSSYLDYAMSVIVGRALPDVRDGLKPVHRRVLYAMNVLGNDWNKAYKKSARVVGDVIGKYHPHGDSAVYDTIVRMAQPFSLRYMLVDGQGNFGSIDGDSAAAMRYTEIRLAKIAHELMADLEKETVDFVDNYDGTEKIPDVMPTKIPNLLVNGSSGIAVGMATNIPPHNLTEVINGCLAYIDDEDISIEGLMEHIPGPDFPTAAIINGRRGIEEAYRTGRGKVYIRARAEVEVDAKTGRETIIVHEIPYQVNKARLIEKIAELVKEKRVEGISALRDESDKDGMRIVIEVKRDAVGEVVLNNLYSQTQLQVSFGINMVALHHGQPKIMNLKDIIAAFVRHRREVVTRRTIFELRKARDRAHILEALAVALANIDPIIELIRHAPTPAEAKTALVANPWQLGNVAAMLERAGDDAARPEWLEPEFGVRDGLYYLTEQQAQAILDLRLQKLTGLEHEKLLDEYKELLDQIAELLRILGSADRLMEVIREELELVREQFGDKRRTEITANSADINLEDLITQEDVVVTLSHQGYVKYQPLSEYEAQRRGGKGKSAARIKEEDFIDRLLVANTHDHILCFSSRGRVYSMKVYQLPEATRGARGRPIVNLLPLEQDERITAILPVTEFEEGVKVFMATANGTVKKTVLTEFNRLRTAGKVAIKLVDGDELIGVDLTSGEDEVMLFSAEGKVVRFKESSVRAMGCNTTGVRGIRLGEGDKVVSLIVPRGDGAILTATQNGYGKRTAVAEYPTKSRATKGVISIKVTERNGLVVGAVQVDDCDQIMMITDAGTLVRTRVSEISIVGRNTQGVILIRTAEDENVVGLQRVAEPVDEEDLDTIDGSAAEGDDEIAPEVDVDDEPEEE

SMILES: C[C@@H]1CN2c3c(cc4c(N5C(=O)OC[C@@H]5C)noc4c3F)CC3(C(=O)NC(=O)NC3=O)[C@H]2[C@H](C)O1 [zoliflodacin, Zoliflodacin]
- double-stranded DNA breaks with gyrase relative to topoisomerase IV (B. anthracis gyrase): ~2 times
- single-stranded compared with double-stranded DNA breaks with gyrase (B. anthracis gyrase): more gyrase-mediated single-stranded than double-stranded DNA breaks
- total DNA breaks with gyrase relative to topoisomerase IV (B. anthracis gyrase): 2.5 to 3 times
- double-stranded DNA breaks with gyrase relative to topoisomerase IV (E. coli gyrase): ~2 times
- single-stranded compared with double-stranded DNA breaks with gyrase (E. coli gyrase): more gyrase-mediated single-stranded than double-stranded DNA breaks
- total DNA breaks with gyrase relative to topoisomerase IV (E. coli gyrase): 2.5 to 3 times

SMILES: CC1CN2c3c(cc4c(OCC5CCC(=O)N5)noc4c3F)CC3(C(=O)NC(=O)NC3=O)C2C(C)O1 (centres unmarked) [H3D-005722]
- single-stranded compared with double-stranded DNA breaks with gyrase (B. anthracis gyrase): higher levels of single-stranded than double-stranded DNA breaks
- total DNA breaks with gyrase relative to topoisomerase IV (B. anthracis gyrase): higher levels of total DNA breaks mediated by gyrase over topoisomerase IV
- single-stranded compared with double-stranded DNA breaks with gyrase (E. coli gyrase): higher levels of single-stranded than double-stranded DNA breaks
- total DNA breaks with gyrase relative to topoisomerase IV (E. coli gyrase): higher levels of total DNA breaks mediated by gyrase over topoisomerase IV
- DNA cleavage mediated by M. tuberculosis gyrase compared with zoliflodacin (M. tuberculosis gyrase): higher levels
